Source: paper PMC11748363, “Antimicrobial and Antiproliferative Properties of 2‐Phenyl‐N‐(Pyridin‐2‐yl)acetamides” (Chemical Biology & Drug Design, 2025)
≈ marks a conversion by molar mass, not a printed value. Read-outs that look alike come from different tables or passages of the source.

Experiments:
[1] = tested on: Mycolicibacterium aurum DSM 43999; test: Antimycobacterial microdilution broth MIC (resazurin), M. aurum; format: cell-based; conditions: DSM43999, read-out: MIC M. aurum
[2] = tested on: Trichophyton interdigitale CCM 8377, ATCC 9533; test: Antifungal microdilution broth MIC, TI; conditions: Trichophyton interdigitale
[3] = tested on: Acinetobacter baumannii DSM 30007, ATCC 19606; test: Antibacterial microdilution broth MIC, ACI; format: cell-based
[4] = tested on: Candida albicans CCM 8320, ATCC 24433; test: Antifungal microdilution broth MIC, CA
[5] = tested on: Mycobacterium tuberculosis H37Ra; test: Antimycobacterial microdilution broth MIC (resazurin), Mtb H37Ra; format: cell-based; conditions: for MIC: Mycobacterium tuberculosis, H37RA
[6] = tested on: Klebsiella pneumoniae CCM 4415, ATCC 10031; test: Antibacterial microdilution broth MIC, KP
[7] = tested on: Staphylococcus aureus subsp. aureus CCM 4750, ATCC 43300 (MRSA); test: Antibacterial microdilution broth MIC, MRSA; format: cell-based; conditions: Staphylococcus aureus
[8] = tested on: Candida parapsilosis CCM 8260, ATCC 22019; test: Antifungal microdilution broth MIC, CP; conditions: Lodderomyces parapsilosis
[9] = tested on: Mycolicibacterium smegmatis DSM 43465; test: Antimycobacterial microdilution broth MIC (resazurin), M. smegmatis; format: cell-based; conditions: DSM43465, read-out: MIC M. smegmatis
[10] = tested on: Escherichia coli CCM 3954, ATCC 25922; test: Antibacterial microdilution broth MIC, EC; format: cell-based
[11] = tested on: Lichtheimia corymbifera CCM 8077; test: Antifungal microdilution broth MIC, LC
[12] = tested on: Enterococcus faecalis CCM 4224, ATCC 29212; test: Antibacterial microdilution broth MIC, EF; format: cell-based
[13] = tested on: Staphylococcus epidermidis CCM 4418, ATCC 12228; test: Antibacterial microdilution broth MIC, SE; format: cell-based
[14] = tested on: Candida krusei CCM 8271, ATCC 6258; test: Antifungal microdilution broth MIC, CK; conditions: Pichia kudriavzevii
[15] = tested on: Aspergillus fumigatus ATCC 204305; test: Antifungal microdilution broth MIC, AF
[16] = tested on: Staphylococcus aureus CCM 4223, ATCC 29213; test: Antibacterial microdilution broth MIC, SA; format: cell-based; conditions: Staphylococcus aureus
HepG2 cell line = test: Cytotoxicity CellTiter 96, HepG2; format: cell-based, human; conditions: Homo sapiens, HepG2, 24 h, 24 h incubation; ^c compound precipitated in the testing medium; ^d over the limit of tested concentrations
[17] = tested on: Pseudomonas aeruginosa CCM 3955, ATCC 27853; test: Antibacterial microdilution broth MIC, PA; format: cell-based
[18] = tested on: Candida tropicalis CCM 8264, ATCC 750; test: Antifungal microdilution broth MIC, CT
[19] = tested on: Aspergillus flavus CCM 8363; test: Antifungal microdilution broth MIC, AFla
[20] = Calculated from MIC (μg/mL), read-out: MIC Mtb H37Ra
[21] = CCM8077, 24 h, read-out: MIC LC 24h
[22] = CCM8077, 48 h, read-out: MIC LC 48h
[23] = ATCC204305, 24 h, read-out: MIC AF 24h
[24] = ATCC204305, 48 h, read-out: MIC AF 48h
[25] = CCM8363, 24 h, read-out: MIC AFla 24h
[26] = CCM8363, 48 h, read-out: MIC AFla 48h

O=C(Cc1cccc(Cl)c1)Nc1cccc(Cl)n1 [Compound 18]
MIC [1]: 62.5 µg/mL (≈ 222 µM)
MIC ([2]; 72 h, read-out: MIC TI 72h): 500 µM (≈ 141 µg/mL)
MIC ([2]; 120 h, read-out: MIC TI 120h): 500 µM (≈ 141 µg/mL)
MIC ([3]; 24 h, read-out: MIC ACI 24h): > 500 µM
MIC ([3]; 48 h, read-out: MIC ACI 48h): > 500 µM
MIC ([4]; 24 h, read-out: MIC CA 24h): > 500 µM
MIC ([4]; 48 h, read-out: MIC CA 48h): > 500 µM
MIC [5, 20]: 55.6 µM
MIC ([5]; read-out: MIC Mtb H37Ra): 15.6 µg/mL
SI (selectivity index) ([5]; SI = HepG2 IC50 (μM)/MIC MtbH37Ra (μM), calculated for compounds with MIC ≤ 31.25 μg/mL): > 1.8
MIC KP 24h [6]: > 500 µM
MIC KP 48h [6]: > 500 µM
MIC ([7]; 24 h, read-out: MIC MRSA 24h): > 500 µM
MIC ([7]; 48 h, read-out: MIC MRSA 48h): > 500 µM
MIC ([8]; 24 h, read-out: MIC CP 24h): > 500 µM
MIC ([8]; 48 h, read-out: MIC CP 48h): > 500 µM
MIC [9]: > 500 µg/mL
MIC ([10]; 24 h, read-out: MIC EC 24h): > 500 µM
MIC ([10]; 48 h, read-out: MIC EC 48h): > 500 µM
MIC [11, 21]: > 500 µM
MIC [11, 22]: > 500 µM
MIC ([12]; 24 h, read-out: MIC EF 24h): > 500 µM
MIC ([12]; 48 h, read-out: MIC EF 48h): > 500 µM
MIC ([13]; 24 h, read-out: MIC SE 24h): > 500 µM
MIC ([13]; 48 h, read-out: MIC SE 48h): > 500 µM
MIC ([14]; 24 h, read-out: MIC CK 24h): > 500 µM
MIC ([14]; 48 h, read-out: MIC CK 48h): > 500 µM
MIC [15, 23]: > 500 µM
MIC [15, 24]: > 500 µM
MIC ([16]; 24 h, read-out: MIC SA 24h): > 500 µM
MIC ([16]; 48 h, read-out: MIC SA 48h): > 500 µM
IC50 (HepG2 cell line): > 100 µM
MIC ([17]; 24 h, read-out: MIC PA 24h): > 500 µM
MIC ([17]; 48 h, read-out: MIC PA 48h): > 500 µM
MIC ([18]; 24 h, read-out: MIC CT 24h): > 500 µM
MIC ([18]; 48 h, read-out: MIC CT 48h): > 500 µM
MIC [19, 25]: > 500 µM
MIC [19, 26]: > 500 µM

O=C(Cc1ccc(F)cc1)Nc1ccc(Cl)cn1 [Compound 32]
MIC [1]: 500 µg/mL (≈ 1890 µM)
MIC ([2]; 72 h, read-out: MIC TI 72h): > 500 µM
MIC ([2]; 120 h, read-out: MIC TI 120h): > 500 µM
MIC ([3]; 24 h, read-out: MIC ACI 24h): > 500 µM
MIC ([3]; 48 h, read-out: MIC ACI 48h): > 500 µM
MIC ([4]; 24 h, read-out: MIC CA 24h): > 500 µM
MIC ([4]; 48 h, read-out: MIC CA 48h): > 500 µM
MIC ([5]; read-out: MIC Mtb H37Ra (μM)): 59 µM
MIC ([5]; read-out: MIC Mtb H37Ra (μg/mL)): 15.6 µg/mL
MIC KP 24h [6]: > 500 µM
MIC KP 48h [6]: > 500 µM
MIC ([7]; 24 h, read-out: MIC MRSA 24h): > 500 µM
MIC ([7]; 48 h, read-out: MIC MRSA 48h): > 500 µM
MIC ([8]; 24 h, read-out: MIC CP 24h): > 500 µM
MIC ([8]; 48 h, read-out: MIC CP 48h): > 500 µM
MIC [9]: 62.5 µg/mL (≈ 236 µM)
MIC ([10]; 24 h, read-out: MIC EC 24h): > 500 µM
MIC ([10]; 48 h, read-out: MIC EC 48h): > 500 µM
MIC [11, 21]: > 500 µM
MIC [11, 22]: > 500 µM
MIC ([12]; 24 h, read-out: MIC EF 24h): > 500 µM
MIC ([12]; 48 h, read-out: MIC EF 48h): > 500 µM
MIC ([13]; 24 h, read-out: MIC SE 24h): 125 µM (≈ 33.1 µg/mL)
MIC ([13]; 48 h, read-out: MIC SE 48h): 125 µM (≈ 33.1 µg/mL)
MIC ([14]; 24 h, read-out: MIC CK 24h): > 500 µM
MIC ([14]; 48 h, read-out: MIC CK 48h): > 500 µM
MIC [15, 23]: > 500 µM
MIC [15, 24]: > 500 µM
MIC ([16]; 24 h, read-out: MIC SA 24h): > 500 µM
MIC ([16]; 48 h, read-out: MIC SA 48h): > 500 µM
IC50 (HepG2 cell line): > 250 µM
MIC ([17]; 24 h, read-out: MIC PA 24h): > 500 µM
MIC ([17]; 48 h, read-out: MIC PA 48h): > 500 µM
MIC ([18]; 24 h, read-out: MIC CT 24h): > 500 µM
MIC ([18]; 48 h, read-out: MIC CT 48h): > 500 µM
MIC [19, 25]: > 500 µM
MIC [19, 26]: > 500 µM

COc1ccc(CC(=O)Nc2ccccn2)cc1 [Compound 10, 2-(4-methoxyphenyl)-N-(pyridin-2-yl)acetamide]
MIC [1]: 250 µg/mL (≈ 1030 µM)
MIC ([2]; 72 h, read-out: MIC TI 72h): 500 µM (≈ 121 µg/mL)
MIC ([2]; 120 h, read-out: MIC TI 120h): 500 µM (≈ 121 µg/mL)
MIC ([3]; 24 h, read-out: MIC ACI 24h): > 500 µM
MIC ([3]; 48 h, read-out: MIC ACI 48h): > 500 µM
MIC ([4]; 24 h, read-out: MIC CA 24h): > 500 µM
MIC ([4]; 48 h, read-out: MIC CA 48h): > 500 µM
MIC [5, 20]: 516 µM
MIC ([5]; read-out: MIC Mtb H37Ra): 125 µg/mL
MIC KP 24h [6]: > 500 µM
MIC KP 48h [6]: > 500 µM
MIC ([7]; 24 h, read-out: MIC MRSA 24h): > 500 µM
MIC ([7]; 48 h, read-out: MIC MRSA 48h): > 500 µM
MIC ([8]; 24 h, read-out: MIC CP 24h): > 500 µM
MIC ([8]; 48 h, read-out: MIC CP 48h): > 500 µM
MIC [9]: 62.5 µg/mL (≈ 258 µM)
MIC ([10]; 24 h, read-out: MIC EC 24h): > 500 µM
MIC ([10]; 48 h, read-out: MIC EC 48h): > 500 µM
MIC [11, 21]: > 500 µM
MIC [11, 22]: > 500 µM
MIC ([12]; 24 h, read-out: MIC EF 24h): > 500 µM
MIC ([12]; 48 h, read-out: MIC EF 48h): > 500 µM
MIC ([13]; 24 h, read-out: MIC SE 24h): 500 µM (≈ 121 µg/mL)
MIC ([13]; 48 h, read-out: MIC SE 48h): 500 µM (≈ 121 µg/mL)
MIC ([14]; 24 h, read-out: MIC CK 24h): 500 µM (≈ 121 µg/mL)
MIC ([14]; 48 h, read-out: MIC CK 48h): 500 µM (≈ 121 µg/mL)
MIC [15, 23]: > 500 µM
MIC [15, 24]: > 500 µM
MIC ([16]; 24 h, read-out: MIC SA 24h): > 500 µM
MIC ([16]; 48 h, read-out: MIC SA 48h): > 500 µM
IC50 (HepG2 cell line): > 1000 µM
MIC ([17]; 24 h, read-out: MIC PA 24h): > 500 µM
MIC ([17]; 48 h, read-out: MIC PA 48h): > 500 µM
MIC ([18]; 24 h, read-out: MIC CT 24h): > 500 µM
MIC ([18]; 48 h, read-out: MIC CT 48h): > 500 µM
MIC [19, 25]: > 500 µM
MIC [19, 26]: > 500 µM
